This is an account of results in patent US20210223237A1, “COMPOSITIONS AND METHODS FOR STUDYING DRUG METABOLISM” (Boehringer Ingelheim International GmbH, priority 2020, published 2021).

For data set [1] the following is noted: HLM 0.005 mg/ml.
For data set [2] the following is noted: in vivo; cited from earlier work.
Data set [3] in a line: in vitro. The note with it: human, pH 7.4.
Data set [4] has as its system CYP3A. The data set can be described thus: CYP3A-mediated midazolam 1′hydroxylation kinetics in HLM suspensions vs HLM-beads. On the set-up: Km, times higher with HLM-beads than with HLM suspensions: unit not given beside the values. The note with it: for microsomal CLint / Km: human; for microsomal CLint: pH 7.4; for Km: pH 7.4, probe midazolam (1′-hydroxylation).
A short description of data set [5]: in vitro. The settings on record: human, microsomes.
Data set [6] is described as follows: Microsomal binding (fu,mic) using HLM-beads. The settings on record: HLM-beads; HLM 1.0 mg/ml; compound 1.0 μM; (SD).
The nature of data set [7]: in vitro. The settings on record: human, microsomes. This is another data set of the same source.
Data set [8] can be described thus: Non-specific binding of compounds to magnetizable beads alone. The note with it: 30 min incubation of beads (5.3×10^9 beads), bioanalysis of supernatant.
The conditions of data set [9]: human, microsomes, 6 h, 1 μM.
The conditions of data set [10]: cited from earlier work.

Like-named read-outs stand apart in the source and are kept apart here.

For the compound `Cc1ncc2n1-c1ccc(Cl)cc1C(c1ccccc1F)=NC2` [Midazolam, midazolam], the “depletion of parent midazolam” value in [1] (HLM suspensions, no new HLM added, up to 160 min) is recorded as “No perceptible depletion”. Besides, the “metabolism of midazolam on exchange of used HLM-beads with fresh HLM-beads” value in data set [1] (HLM-bead relay every 20 minutes) was “continued metabolism”. For the same compound, the “blood clearance reported in the literature” value in [2] is on record as 8.59 mL/min/kg. Besides, in data set [3], the CLhep predicted at 1 μM was 9.47 mL/min/kg. In data set [3], this compound came in with a microsomal CLint at 1 μM of 842 µL/min/mg. The values for the Vmax in data set [4] (HLM suspensions) and in [4] (HLM-beads) were 2002 ± 66 pmol/min/mg and 4350 ± 249^sig pmol/min/mg, respectively. Further, the “Km, times higher with HLM-beads than with HLM suspensions” value in data set [4] (HLM-beads vs HLM suspensions) is around 3 ×. Further, the values for the microsomal CLint in data set [4] (human liver microsomes (suspension)) and in data set [4] were 2830 µL/min/mg and 2130 µL/min/mg, respectively. In addition, the Km in [4] (human liver microsomes bound to beads (HLM-beads)) amounted to 2.04 ± 0.23 µM; in data set [4] (human liver microsomes in suspension (no beads)), 0.612 ± 0.086 µM. Besides, the fraction unbound at 5 min, 1 μM in data set [5] worked out at 0.76. The “fu,mic” value in [6] is on record as 0.53 (0.02). The compound also registered a fraction unbound at 6 h, 1 μM in data set [7] of 0.98. For the same compound, the “non-specific binding to the beads” value in data set [8] was “not observed”.
With `CC(=O)CC(c1ccccc1)c1c(O)c2ccccc2oc1=O` (stereo not shown) [Warfarin, warfarin], the “fu,mic” value in data set [9] is reported as 0.86 (0.08). Besides, the pKa in [10] is given as 5.0. Further, in data set [7], the fraction unbound at 6 h, 1 μM was 0.94.
